Results: article PMC5581131, “The novel sphingosine-1-phosphate receptors antagonist AD2900 affects lymphocyte activation and inhibits T-cell entry into the lymph nodes” (Oncotarget, 2017)

Columns and labels:
Jurkat cell line = experiment: XTT viability assay, Jurkat; format: cell-based, human; settings: 1-day treatment
Protocol: (§1) Figure 1 AD2900 inhibits human lymphocyte proliferation in allogeneic activation (A, B) The levels of proliferative response of human peripheral blood lymphocytes (PBMCs) after 1-day pretreatment with different concentrations of AD2900, AD2750, YZ138, YZ158, and YZ297 (A) or AD2900, FTY720, and SEW2871 (B) were tested by human allogeneic mixed lymphocyte reaction (MLR) assay, followed by a [3H] thymidine incorporation analysis. (C) Apoptosis of AD2900-treated activated PBMCs was tested by AnnexinV-propidium iodide (PI) FACS analysis following 1-day AD2900 pretreatment and MLR. All the samples were compared to the untreated PBMC control. (D) IFN-γ secretion from activated PBMCs was tested by ELISA following a 1-day AD2900 pretreatment in MLR. On the 5th day of hMLR, supernatants were collected and assayed for the level of IFN-γ. (E) Jurkat cell viability after a 1-day treatment with different concentrations of AD2900, FTY720, and SEW2871 was tested by XTT viability assay. (F) H9, CEM/C1, and Molt4 cell viability after a 1-day treatment with different concentrations of AD2900 was tested by XTT viability assay. Graphs summarize the results of at least three independent experiments. Results of Student’s t-test: *(P < 0.05, two-tailed test), ** (P < 0.01, two-tailed test), *** (P < 0.001, two-tailed test), **** (P < 0.0001, two-tailed test). […]

activated PBMCs = experiment: Apoptosis of activated PBMCs, AnnexinV-PI FACS after MLR; format: cell-based, human; settings: 1-day pretreatment, 5 days of MLR
Protocol: as §1, with “assay.” for “assay. (F) H9, CEM/C1, and Molt4 cell viability after a 1-day treatment with different concentrations of AD2900 was tested by XTT viability assay. Graphs summarize the results of at least three independent experiments. Results of Student’s t-test: *(P < 0.05, two-tailed test), ** (P < 0.01, two-tailed test), *** (P < 0.001, two-tailed test), **** (P < 0.0001, two-tailed test).”
Human PBLs were collected from human whole blood collected from healthy donors. […] For the thymidine incorporation assay, after 4 days of co-culture, cells were pulsed with ^3H-thymidine at 1 μCi (0.037MBq) per well (PerkinElmer, MA, USA) for 16 additional hours and then harvested onto glass-fiber filters. ^3H-thymidine incorporation was measured using Top Count. […]

S1P2 = biological target: T1, S1P2 (Homo sapiens, UniProt O95136); experiment: S1P2 agonist test, S1P2 CRE-bla CHO cells; format: cell-based; settings: S1P2 CRE-BLA CHO cell line
T1 construct: expressed in transfected cells; host or cells: S1P2 CRE-bla CHO cells
Protocol: (§2) Since AD2900 is a sphingolipid analogue with properties that resemble those of S1P, we intended to examine its ability to interact with the S1P receptors. To delineate whether AD2900 can function as an agonistic or antagonistic compound to any of the S1P receptors, we used a high-throughput screening cell-based assay, employing cell lines stably transfected with human S1P receptors 1, 2, 3, 4, or 5 [37]. In this experiment, a compound with an IC50 or EC50 value ≤10 μM for a certain S1P receptor is considered active as an antagonist or an agonist, respectively. The results illustrate that AD2900 acts as an antagonist to all S1P receptors (Table 1, Supplementary Figure 3). […] No agonist activation was evident.
(§3) The S1P1 agonist test and S1P2, S1P3, S1P4, and S1P5 agonist and antagonist tests were conducted as previously described using S1P1 CRE-bla CHO cells, S1P2 CRE-bla CHO cells, S1P3 NFAT-bla CHO cells, Tango™ S1P4 (EDG6)-bla U-2 OS cells, and Tango™ S1P5 ([…])-bla U-2 OS cells. The S1P1 antagonist assay was carried out according to the manufacturer’s instructions using a Tango™ S1P1 (EDG1)-bla U-2 OS Cell-Based Assay (Invitrogen, NY, USA).

S1P1 = S1P1 (Homo sapiens, UniProt P21453); experiment: S1P1 agonist test, S1P1 CRE-bla CHO cells; format: cell-based; settings: S1P1 CRE-BLA CHO cell line
Protocol: as §2, §3

T1 sequence (O95136 whole entry): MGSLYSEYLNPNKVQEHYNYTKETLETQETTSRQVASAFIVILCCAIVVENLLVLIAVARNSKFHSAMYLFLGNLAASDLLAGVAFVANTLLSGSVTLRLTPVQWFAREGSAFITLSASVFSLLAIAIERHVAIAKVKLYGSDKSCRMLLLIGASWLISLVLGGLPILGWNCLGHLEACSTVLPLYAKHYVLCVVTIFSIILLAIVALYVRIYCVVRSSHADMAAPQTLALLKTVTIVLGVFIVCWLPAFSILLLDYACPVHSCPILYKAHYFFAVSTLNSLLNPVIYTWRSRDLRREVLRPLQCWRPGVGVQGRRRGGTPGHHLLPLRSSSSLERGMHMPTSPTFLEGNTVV
S1P1, sequence (P21453 whole entry): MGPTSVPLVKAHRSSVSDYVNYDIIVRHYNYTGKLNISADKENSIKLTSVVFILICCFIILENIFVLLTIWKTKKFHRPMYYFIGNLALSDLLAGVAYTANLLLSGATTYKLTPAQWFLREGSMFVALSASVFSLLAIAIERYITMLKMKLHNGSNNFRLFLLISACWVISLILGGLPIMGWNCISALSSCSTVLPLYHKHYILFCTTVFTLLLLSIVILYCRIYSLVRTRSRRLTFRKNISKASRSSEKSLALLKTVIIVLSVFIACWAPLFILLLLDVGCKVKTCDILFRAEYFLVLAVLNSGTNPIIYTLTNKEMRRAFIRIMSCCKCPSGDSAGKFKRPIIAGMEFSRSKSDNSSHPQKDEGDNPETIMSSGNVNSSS

CCCCCCCCCCCCCCCCNC(CO)(CO)CO [AD2900]
concentrations leading to reduced viability of Jurkat cells (Jurkat cell line): higher than 10 μM | effect on Jurkat viability compared to FTY720 and SEW2817 (Jurkat cell line): lower than that with FTY720 treatment and higher than that with SEW2817 | concentrations at which apoptosis was induced on activated PBMCs (activated PBMCs): above 10 μM | EC50 (S1P2): > 50 µM | EC50 (S1P1): > 50 µM
